From US8815535B2, “Disk diffusion assay for oritavancin” (The Medicines Company, priority 2011, dated 2014)
Read-outs that look alike come from different tables or passages of the source.

Test system: MSSA ATCC 25923
Experiment: Disk diffusion assay (zone of inhibition)
Assay type: cell-based, Staphylococcus aureus
Conditions: for Effect of addition of 5% P80 on zone diameter (average increase): MSSA ATCC 25923, disks containing 30 μg; for zone of inhibition at 30 µg/disc: Staphylococcus aureus, 30 μg in disk, without prediffusion, average of 2 disks
Source text: The study was designed to identify conditions that improve oritavancin diffusion in agar and consequently yield a zone diameter ≧15 mm for the CLSI quality control strain MSSA ATCC 25923. Excipients that increased the disk diffusion of oritavancin in agar relative to disks containing only oritavancin were identified and selected for further study. […] A prediffusion step at room temperature was introduced to maximize oritavancin diffusion prior to initiation of bacterial growth. In this step, the antimicrobial disks were placed on agar plates seeded with a bacterial isolate and incubated at room temperature for 3 hours. Plates were then incubated overnight at 37° C. Zone diameters around the disks in which bacterial growth was inhibited were measured with a ruler and reported in millimeters.
Ethanol-sterilized Whatman paper disks (6 mm diameter) were allowed to dry then impregnated with 20 microliters of oritavancin solution containing total amounts ranging from 90 to 360 micrograms. Disks were allowed to dry at room temperature for various times prior to use.
Bacterial suspensions were prepared and adjusted to an optical density of 0.1 at 600 nm. […] The plate was swabbed a second time, perpendicular to the orientation of the first swab. To assess the impact of prediffusion on diameter of inhibition zones, two disks were immediately placed on one half of the plate and the plate was incubated for 3 hours at room temperature. After 3 hours, two additional disks were placed on the other half of the plate then the plate was incubated overnight at 37° C. Zone diameters were measured with a ruler and reported in millimeters. […]
Oritavancin powder was dissolved in freshly-prepared solutions of the indicated excipients at concentrations of 0.625, 1.25, 2.5, 5, and 10 mg/ml (adjusted for potency based on lot 875561L00 purity of 83.1%) by vortexing for a minimum of 5 minutes. Oritavancin solutions in the various excipients, while not visually clear, were free from any apparent particulates as assessed visually. Sterile Oxoid blank disks were impregnated with 20 μl of these oritavancin solutions, resulting in oritavancin disk loads ranging from 12.5 to 200 μg. Unless indicated otherwise, disks were allowed to dry overnight at room temperature prior to use.
[…] Swabbing was continued at a right angle and then at an oblique angle to the first and second swabs. Disks were placed upon the seeded plates with sterile forceps. Plates were then incubated overnight at 37° C. and inhibition zone diameters were measured with a ruler and reported in millimeters.

[1] = read-out: Average zone diameter, S. aureus ATCC 25923, +5% P80
[2] = read-out: Average zone diameter, S. aureus ATCC 25923, Control (without P80)

Row | Structure (SMILES) | Effect of addition of 5% P80 on zone diameter (average increase) | zone of inhibition at 30 µg/disc (S. aureus ATCC 25923, +5% P80, read-out: Average zone diameter) | zone of inhibition at 30 µg/disc (S. aureus ATCC 25923, Control (without P80), read-out: Average zone diameter) | zone of inhibition at 30 µg/disc [1] | zone of inhibition at 30 µg/disc [2]
1 | CCCCCCCCCC(=O)N[C@@H](Cc1c[nH]c2ccccc12)C(=O)N[C@H](CC(N)=O)C(=O)N[C@@H](CC(=O)O)C(=O)N[C@@H]1C(=O)NCC(=O)N[C@@H](CCCN)C(=O)N[C@@H](CC(=O)O)C(=O)N[C@H](C)C(=O)N[C@@H](CC(=O)O)C(=O)NCC(=O)N[C@H](CO)C(=O)N[C@@H]([C@H](C)CC(=O)O)C(=O)N[C@@H](CC(=O)c2ccccc2N)C(=O)O[C@@H]1C [Daptomycin] | no effect | 18 mm | 18.5 mm | – | –
2 | CCCCCCCCCCNCCN[C@@]1(C)C[C@H](O[C@H]2[C@H](Oc3c4cc5cc3Oc3ccc(cc3Cl)[C@@H](O)[C@@H](NC(=O)[C@@H](CC(C)C)NC)C(=O)N[C@@H](CC(N)=O)C(=O)N[C@H]5C(=O)N[C@H]3C(=O)N[C@H](C(=O)N[C@H](C(=O)O)c5cc(O)c(CNCP(=O)(O)O)c(O)c5-c5cc3ccc5O)[C@H](O)c3ccc(c(Cl)c3)O4)O[C@H](CO)[C@@H](O)[C@@H]2O)O[C@@H](C)[C@H]1O [Telavancin] | – | – | – | 18 mm | 16.5 mm
3 | CN[C@H](CC(C)C)C(=O)N[C@H]1C(=O)N[C@@H](CC(N)=O)C(=O)N[C@H]2C(=O)N[C@H]3C(=O)N[C@H](C(=O)N[C@H](C(=O)O)c4cc(O)cc(O)c4-c4cc3ccc4O)[C@H](O)c3ccc(c(Cl)c3)Oc3cc2cc(c3O[C@@H]2O[C@H](CO)[C@@H](O)[C@H](O)[C@H]2O[C@H]2C[C@](C)(N)[C@H](O)[C@H](C)O2)Oc2ccc(cc2Cl)[C@H]1O [Vancomycin] | no effect | – | – | 17.5 mm | 17.5 mm
